Test system: VAChT KD^HOM mice
Experiment: Grip force test in VAChT KD^HOM mice
Format: in vivo
Settings: pyridostigmine i.p. 1 mg/kg, 30 min prior to the test, FIG. 4B, p<0.05
Protocol: To evaluate whether the alterations detected in neuromuscular transmission may affect neuromuscular function, we tested the performance of wild-type and mutant mice in motor tasks (FIG. 4). The wire-hang experiments were conducted as described (Sango et al. (1996) Mice lacking both subunits of lysosomal beta-hexosaminidase display gangliosidosis and mucopolysaccharidosis. Nat. Genet. 14:348-352) and time spent hanging upside down was determined with a cut-off time of 60 sec.
To measure grip force, we used a custom built force transducer connected to a small support that could be grasped by the mouse as described (Fowler et al. (2002) Motor and associative deficits in D2 dopamine receptor knockout mice. Int. J. Dev. Neurosci. 20:309-321). Five tests were performed per mouse with a maximum period of 50 sec for each animal over two different days. The force transducer was coupled to a computer and a routine was developed to record the maximal grip-force exerted. By comparison, VAChT KD^HET mice present no deficit in neuromuscular function as assessed in this test. Importantly, reduced grip-strength in VAChT KD^HOM mice was improved by prior injection of one of three cholinesterase inhibitors: pyridostigmine (i.p. 1 mg/kg), galantamine (s.c. 1 mg/kg) or physostigmine (i.p., 0.3 mg/kg), (FIG. 4B, F(3,47)=8.323 p<0.05). […]

With CN(C)C(=O)Oc1ccc[n+](C)c1 [pyridostigmine] the “grip-strength (maximal grip-force)” value was “improved”.

From patent publication US9139638B2, “Mouse model of cholinergic dysfunction to evaluate cognitive enhancers and drugs that improve myasthenia” (priority 2006, dated 2015)
